Data as given in patent publication US7094781B2, “Sulfamides and their use as endothelin receptor antagonists” (Actelion Pharmaceuticals Ltd., priority 2000, dated 2006).
Read-outs that look alike come from different tables or passages of the source.

Experiments:
[1] = target: T1, ETB receptors (rat tracheal rings) (Rattus norvegicus, UniProt P21451); assay: Inhibition of sarafotoxin S6c-induced contraction on isolated rat tracheal rings
T1 construct: The thoracic aorta or trachea were excised, dissected and cut in 3–5 mm rings; from tissue; host or cells: tracheal rings of adult Wistar rats, epithelium removed
T1 sequence (P21451 27-442): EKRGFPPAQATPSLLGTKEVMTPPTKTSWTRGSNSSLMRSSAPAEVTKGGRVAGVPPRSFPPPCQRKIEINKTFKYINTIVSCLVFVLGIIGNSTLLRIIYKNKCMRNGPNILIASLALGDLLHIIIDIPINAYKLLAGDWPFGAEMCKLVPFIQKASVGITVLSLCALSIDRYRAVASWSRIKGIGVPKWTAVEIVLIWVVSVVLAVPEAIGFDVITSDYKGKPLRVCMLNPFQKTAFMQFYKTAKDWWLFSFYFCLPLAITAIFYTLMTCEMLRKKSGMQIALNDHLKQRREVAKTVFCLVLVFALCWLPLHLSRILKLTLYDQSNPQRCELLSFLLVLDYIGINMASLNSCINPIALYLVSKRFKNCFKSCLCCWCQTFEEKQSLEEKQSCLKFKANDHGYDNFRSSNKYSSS
Method: (§1) 2) Inhibition of Endothelin-induced Contractions on Isolated Rat Aortic Rings (ETA Receptors) and Rat Tracheal Rings (ETB Receptors):
(§2) The functional inhibitory potency of the endothelin antagonists was assessed by their inhibition of the contraction induced by endothelin-1 on rat aortic rings (ETA receptors) and of the contraction induced by sarafotoxin S6c on rat tracheal rings (ETB receptors). Adult Wistar rats were anesthetized and exsanguinated. The thoracic aorta or trachea were excised, dissected and cut in 3–5 mm rings. The endothelium/epithelium was removed by gentle rubbing of the intimal surface. […] The rings were connected to force transducers and isometric tension was recorded (EMKA Technologies SA, Paris, France). The rings were stretched to a resting tension of 3 g (aorta) or 2 g (trachea). […] The functional inhibitory potency of the test compound was assessed by calculating the concentration ratio, i.e. the shift to the right of the EC50 induced by different concentrations of test compound. EC50 is the concentration of endothelin needed to get a half-maximal contraction, pA2 is the negative logarithm of the antagonist concentration which induces a two-fold shift in the EC50 value.

[2] = target: T2, human recombinant ETB receptor (Homo sapiens, UniProt P24530); assay: Inhibition of [125I]ET-1 binding to membranes from CHO cells carrying human ETB receptors
T2 construct: expressed in transfected cells; host or cells: CHO cells (microsomal membranes)
T2 sequence (P24530 27-442): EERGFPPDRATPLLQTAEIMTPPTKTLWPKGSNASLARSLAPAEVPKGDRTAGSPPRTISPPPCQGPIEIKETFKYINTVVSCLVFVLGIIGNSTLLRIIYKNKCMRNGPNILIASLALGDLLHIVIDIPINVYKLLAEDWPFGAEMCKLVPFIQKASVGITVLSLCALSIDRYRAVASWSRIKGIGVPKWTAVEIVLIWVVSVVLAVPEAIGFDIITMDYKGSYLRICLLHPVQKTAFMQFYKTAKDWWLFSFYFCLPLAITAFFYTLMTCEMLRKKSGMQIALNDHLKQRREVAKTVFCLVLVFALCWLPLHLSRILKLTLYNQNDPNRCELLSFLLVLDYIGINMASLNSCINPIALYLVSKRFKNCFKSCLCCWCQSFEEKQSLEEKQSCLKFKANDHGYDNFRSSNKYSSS

[3] = target: T3, ETA receptors (rat aortic rings) (Rattus norvegicus, UniProt P26684); assay: Inhibition of endothelin-1-induced contraction on isolated rat aortic rings
T3 construct: The thoracic aorta or trachea were excised, dissected and cut in 3–5 mm rings; from tissue; host or cells: thoracic aorta rings of adult Wistar rats, endothelium removed
T3 sequence (P26684 21-426): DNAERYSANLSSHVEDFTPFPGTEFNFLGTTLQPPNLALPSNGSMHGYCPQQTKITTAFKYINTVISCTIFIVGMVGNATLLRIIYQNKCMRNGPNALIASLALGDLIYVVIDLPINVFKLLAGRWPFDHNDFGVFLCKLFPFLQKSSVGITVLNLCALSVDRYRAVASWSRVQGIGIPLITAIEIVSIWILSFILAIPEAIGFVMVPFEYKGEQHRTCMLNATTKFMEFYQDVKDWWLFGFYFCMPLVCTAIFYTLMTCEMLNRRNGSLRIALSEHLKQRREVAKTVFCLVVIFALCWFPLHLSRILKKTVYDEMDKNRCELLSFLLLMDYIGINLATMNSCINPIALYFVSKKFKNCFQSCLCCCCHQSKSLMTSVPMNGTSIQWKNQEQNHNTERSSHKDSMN
Method: as §1, §2

[4] = target: T4, human recombinant ETA receptor (Homo sapiens, UniProt P25101); assay: Inhibition of [125I]ET-1 binding to membranes from CHO cells carrying human ETA receptors
T4 construct: expressed in transfected cells; host or cells: CHO cells (microsomal membranes)
T4 sequence (P25101 21-427): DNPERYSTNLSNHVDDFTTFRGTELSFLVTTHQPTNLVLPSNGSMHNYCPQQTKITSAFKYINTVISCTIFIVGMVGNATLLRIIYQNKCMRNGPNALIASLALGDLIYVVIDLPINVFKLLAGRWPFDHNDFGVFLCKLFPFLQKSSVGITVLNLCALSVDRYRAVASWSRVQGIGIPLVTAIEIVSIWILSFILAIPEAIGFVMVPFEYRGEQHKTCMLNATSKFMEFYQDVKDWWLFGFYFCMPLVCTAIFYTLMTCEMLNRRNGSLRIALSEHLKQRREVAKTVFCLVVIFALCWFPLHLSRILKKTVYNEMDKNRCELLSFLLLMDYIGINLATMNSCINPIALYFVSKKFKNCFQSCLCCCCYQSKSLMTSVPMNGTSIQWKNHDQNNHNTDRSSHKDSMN

With O=S(=O)(NCc1ccccn1)Nc1ncnc(OCCOc2ncc(Br)cn2)c1-c1ccc(Cl)cc1 [Example 18] the Kb [1] was > 10000 nM, the IC50 [2] was 3330 nM and the Kb ([3]; read-out: pA2 value ETA (converted)) was 7.08 nM. For the same compound, the IC50 [4] was 8.5 nM.

CSc1cnc(OCCOc2ncnc(NS(=O)(=O)NCc3ccccc3)c2-c2ccc(Br)cc2)nc1 [Example 102] gave a Kb [1] of 174 nM, an IC50 [2] of 65 nM and a Kb [3] of 3.98 nM. For the same compound, the IC50 [4] was 0.46 nM.
